In US8906879B2, “Combination for the treatment of cancer” (GlaxoSmithKline Intellectual Property (No. 2) Limited, priority 2010, dated 2014):

Key:
PL45 = experiment: Cell growth inhibition assay (Cell Titer Glo), PL45; assay type: cell-based; conditions: Homo sapiens, 72 h; single agent; PL45, KRAS G12D; 3 days
Procedure: (§1) BxPC-3, HuP-T4, PL45, Panc-02-03, Mia-PaCa, HPAF-II, SW1990, Panc-08-13, Capan-1, AsPC-1, Capan-2, HPAC, YAPC and Panc-1 lines were used in the study. BxPC-3, Mia-PaCa, HPAF-11, SW1990, AsPC-1, Capan-2 and YAPC were cultured in RPMI 1640 medium (cat#72400 047, Invitrogen) containing 10% fetal bovine serum (FBS) (cat#SH30071.03, Hyclone). Capan-1 and HuP-T4 were cultured in RPMI 1640 medium containing 20% FBS. PL45 and PANC-1 lines were cultured in DMEM (ATCC 30-2002) containing 10% FBS. Panc-02-03 and Panc-08-13 were cultured in RPMI 1640 medium containing 15% fetal bovine serum and ITSX (51500-056, Gibco). HPAC was cultured in RPMI 1640 medium containing 5% FBS, ITSX, 40 ng/ml Hydrocortism, and 10 ng/ml EGF (85570C-1MG, SAFC Biosciences).
(§2) All cells were cultured for a minimum of 72 hours prior to cell plating. […] ATP levels were determined by adding Cell Titer Glo® (Promega) according to the manufacturer's protocol. Briefly, Cell Titer Glo® was added to each plate, incubated for 30 minutes and then the luminescent signal was read on the SpectraMax L plate reader with a 0.5 sec integration time.
(§3) Inhibition of cell growth was estimated after treatment with compound or combination of compounds for three days and the signal was compared to cells treated with vehicle (DMSO). Cell growth was calculated relative to vehicle (DMSO) treated control wells. […]

Capan-1 = experiment: Cell growth inhibition assay (Cell Titer Glo), Capan-1; assay type: cell-based; conditions: Homo sapiens, 72 h; single agent; Capan-1, KRAS G12V; 3 days
Procedure: as §1, §2, §3

Panc-02-03 = experiment: Cell growth inhibition assay (Cell Titer Glo), Panc-02-03; assay type: cell-based; conditions: Homo sapiens, Panc 02.03, 72 h; single agent; Panc-02-03, KRAS G12D; 3 days
Procedure: as §1, §2, §3

[1] = test system: KRAS mutant lines HPAF-11, SW1990, Panc-08-13 and Capan-1; experiment: Cell growth inhibition assay, four KRAS mutant lines; assay type: cell-based; conditions: Homo sapiens; single agent; over HPAF-11, SW1990, Panc-08-13 and Capan-1
Procedure: as §1
(§4) All cells were cultured for a minimum of 72 hours prior to cell plating. Cells were assayed in a 96-well tissue culture plate (NUNC 136102) of RPMI medium containing 10% FBS for all cells at 1,000 cells per well. Approximately 24 hours after plating, cells were exposed to ten, three-fold serial dilutions of compound or the combination of the two agents at a constant molar to molar ratio of 1:1 Compound A to Compound B in RPMI media containing 10% FBS. Cells were incubated in the presence of compounds for 3 days. ATP levels were determined by adding Cell Titer Glo® (Promega) according to the manufacturer's protocol. Briefly, Cell Titer Glo® was added to each plate, incubated for 30 minutes and then the luminescent signal was read on the SpectraMax L plate reader with a 0.5 sec integration time.
as §3
(§5) Combination effects on potency were evaluated using Combination Index (CI) which was calculated with the back-interpolated IC50 values and the mutually non-exclusive equation derived by Chou and Talalay: CI=Da/IC50(a)+Db/IC50(b)+(Da×Db)/(IC50(a)×IC50(b)) […]
(§6) The combination effects on the response scale were quantified by Excess Over Highest Single Agent (EOHSA) based on the concept of nonlinear blending as described in detail by Liu et al, 2011. […] For single agent and combination treatments, cells were exposed to compounds at a fixed-dose-ratio, and dose response curves were fit to the experimental data and analyzed using regression models. At specified total dose levels of IC50 along the dose response curve, the dose combination (corresponding to IC50) was determined for making EOHSA statistical inferences. […]

[2] = test system: KRAS mutant tumor lines, HuP-T4, PL45, Panc-02-03 and Mia-PaCa; experiment: as above; assay type: cell-based; conditions: Homo sapiens; single agent; range over HuP-T4, PL45, Panc-02-03 and Mia-PaCa
Procedure: as §1, §4, §3, §5, §6

Panc-1 = experiment: Cell growth inhibition assay (Cell Titer Glo), Panc-1; assay type: cell-based, human; conditions: for IC50: Homo sapiens, 72 h, single agent, Panc-1, KRAS G12D, 3 days; for sensitivity of cell growth (in words): KRAS mutant Panc-1 cells
Procedure: as §1, §4, §3, §5, §6

YAPC = experiment: Cell growth inhibition assay (Cell Titer Glo), YAPC; assay type: cell-based; conditions: Homo sapiens, 72 h, single agent, KRAS G12V, 3 days
Procedure: as §1, §2, §3

Mia-PaCa = experiment: Cell growth inhibition assay (Cell Titer Glo), Mia-PaCa; assay type: cell-based; conditions: Homo sapiens, MIA PaCa-2, 72 h, single agent, KRAS G12C, 3 days
Procedure: as §1, §2, §3

AsPC-1 = experiment: Cell growth inhibition assay (Cell Titer Glo), AsPC-1; assay type: cell-based; conditions: Homo sapiens, ASPC1, 72 h; single agent; AsPC-1, KRAS G12D; 3 days
Procedure: as §1, §2, §3

HuP-T4 = experiment: Cell growth inhibition assay (Cell Titer Glo), HuP-T4; assay type: cell-based; conditions: Homo sapiens, 72 h; single agent; HuP-T4, KRAS G12V; 3 days
Procedure: as §1, §2, §3

Capan-2 = experiment: Cell growth inhibition assay (Cell Titer Glo), Capan-2; assay type: cell-based; conditions: Homo sapiens, 72 h; single agent; Capan-2, KRAS G12V; 3 days
Procedure: as §1, §2, §3

BxPC-3 = experiment: Cell growth inhibition assay (Cell Titer Glo), BxPC-3; assay type: cell-based; conditions: Homo sapiens, 72 h; single agent; BxPC-3, KRAS WT; 3 days
Procedure: as §1, §2, §3

SW1990 = experiment: Cell growth inhibition assay (Cell Titer Glo), SW1990; assay type: cell-based; conditions: Homo sapiens, 72 h; single agent; SW1990, KRAS G12D; 3 days
Procedure: as §1, §2, §3

HPAC = experiment: Cell growth inhibition assay (Cell Titer Glo), HPAC; assay type: cell-based; conditions: Homo sapiens, 72 h, single agent, KRAS G12D, 3 days
Procedure: as §1, §2, §3

Panc-08-13 = experiment: Cell growth inhibition assay (Cell Titer Glo), Panc-08-13; assay type: cell-based; conditions: Homo sapiens, 72 h; single agent; Panc-08-13, KRAS G12D; 3 days
Procedure: as §1, §2, §3

HPAF-II = experiment: Cell growth inhibition assay (Cell Titer Glo), HPAF-II; assay type: cell-based; conditions: Homo sapiens, 72 h, single agent, KRAS G12D, 3 days
Procedure: as §1, §2, §3

CC(=O)Nc1cccc(-n2c(=O)n(C3CC3)c(=O)c3c(Nc4ccc(I)cc4F)n(C)c(=O)c(C)c32)c1 [Compound A, N-{3-[3-cyclopropyl-5-(2-fluoro-4-iodo-phenylamino)-6,8-dimethyl-2,4,7-trioxo-3,4,6,7-tetrahydro-2H-pyrido[4,3-d]pyrimidin-1-yl]phenyl}acetamide]
IC50 (PL45): 15 ± 4 nM
IC50 (Capan-1): 193 ± 78 nM
IC50 (Panc-02-03): 32 ± 13 nM
IC50 [1]: 59 to 193 nM
IC50 [2]: 1 to 59 nM
IC50 (Panc-1): > 1000 nM
sensitivity of cell growth (in words) (Panc-1): resistant
IC50 (YAPC): > 1000 nM
IC50 (Mia-PaCa): 59 ± 28 nM
IC50 (AsPC-1): 5 nM
IC50 (HuP-T4): 1 ± 1 nM
IC50 (Capan-2): 10 ± 1 nM
IC50 (BxPC-3): 14 nM
IC50 (SW1990): 62 ± 43 nM
IC50 (HPAC): 21 ± 6 nM
IC50 (Panc-08-13): 67 ± 14 nM
IC50 (HPAF-II): 59 ± 53 nM

Nc1ccn([C@@H]2O[C@H](CO)[C@@H](O)C2(F)F)c(=O)n1 [Compound B, 4-amino-1-(2-deoxy-2,2-difluoro-β-D-erythro-pentofuranosyl)pyrimidin-2(1H)-on 2′,2′-difluoro-2′-deoxycytidine]
IC50 (PL45): 13 ± 2 nM
IC50 (Capan-1): > 1000 nM
IC50 (Panc-02-03): 88 ± 17 nM
IC50 [1]: > 1000 nM
IC50 [2]: 7 to 88 nM
IC50 (Panc-1): > 1000 nM
sensitivity of cell growth (in words) (Panc-1): resistant
IC50 (YAPC): 12 ± 8 nM
IC50 (Mia-PaCa): 21 ± 1 nM
IC50 (AsPC-1): > 1000 nM
IC50 (HuP-T4): 7 ± 5 nM
IC50 (Capan-2): > 1000 nM
IC50 (BxPC-3): 8 nM
IC50 (SW1990): ≥ 1000 nM
IC50 (HPAC): > 1000 nM
IC50 (Panc-08-13): > 1000 nM
IC50 (HPAF-II): > 1000 nM
